Results published in PMC6151456, “Screening a Natural Product-Based Library against Kinetoplastid Parasites” (Molecules : A Journal of Synthetic Chemistry and Natural …, 2017).
Where a name gives a salt, the structure may show the parent alone. Read-outs that look alike come from different tables or passages of the source.

What was measured:
[1] = system: T. b. brucei bloodstream form strain 427; experiment: T. b. brucei resazurin viability assay; type: cell-based, Trypanosoma brucei brucei; conditions: for IC50: Trypanosoma brucei, n = 2, 14 point dose response, top 20 µM, read-out: IC50 (mean ± SD), T. b. brucei
Experimental: (§1) For the primary screen, compounds were prepared as a stock concentration of 5 mM in 100% DMSO and tested in duplicate points for two independent experiments (n = 2) at final assay concentrations of 20 µM and 16.7 µM for the L. donovani intracellular amastigote and promastigote viability assays, respectively. Primary screening against T. b. brucei was undertaken at 5 µM and for T. cruzi at 10 µM final concentrations. […] These compounds were then retested in a 14 point format to determine the IC50 value against the parasite, and against HEK-293, THP-1 and 3T3 cells to determine the selectivity to the parasite. […] A top dose of 20 µM was used in the T. b. brucei assay and 18.3 µM for T.cruzi assay, in 14 point dose repsonse curves as described.
The efficacy of compounds against T. b. brucei bloodstream form was evaluated using a resazurin-based assay, previously described in the literature.

[2] = system: HEK-293 cells; experiment: HEK-293 resazurin viability assay (cytotoxicity, selectivity); type: cell-based, human
Experimental: (§2) Primary screening against T. b. brucei was undertaken at 5 µM and for T. cruzi at 10 µM final concentrations.
Cytotoxicity testing was undertaken as previously described.

[3] = system: T. b. brucei; design: method as in PMID 18833031; conditions: cited from earlier work
[4] = system: L. donovani DD8; design: method as in PMID 7592170; conditions: compared to other strains; cited from earlier work
[5] = system: L. donovani DD8 promastigotes; experiment: L. donovani DD8 promastigote viability assay (resazurin); type: cell-based, Leishmania donovani; conditions: Leishmania donovani; at 16.7 µM
Experimental: as §1
This assay was established to assess the activity of the compound library on the extracellular form of the parasites. An initial cell density of 1 × 10^5 parasites/mL was inoculated into a 75 cm^2 flask (in a total of 30 mL of M199 medium + 10% (v/v) HIFBS) and incubated at 27 °C. After 96 h the parasites reached the mid-log phase and were seeded in black, clear bottom 384-well plates (Greiner-bio-one®, Monroe, UT, USA) at a concentration of 5 × 10^5 parasites/mL in a volume of 55 µL using a Bravo automated liquid handling platform (Agilent, Santa Clara, CA, USA). Compound stocks were diluted 1:25 in M199 media without HIFBS using a dilution plate (Greiner-bio-one®, Monroe, UT, USA). The compounds were dispensed in 5 µL using a Bravo and parasites incubated for an additional 68 h at 27 °C. Resazurin (Cayman Chemicals®, Ann Arbor, MI, USA) at 0.142 mM final assay concentration was then dispensed into plates at a volume of 10 µL/well using a Multidrop™ 384 Reagent Dispenser (Thermo Scientific®, Newington, NH, USA) and incubated at 27 °C. The plates were read after 4 h on an EnVision™ Multilabel plate reader (PerkinElmer, Waltham, MA, USA) using fluorometry with an excitation of 530 nm and emission 590 nm. For the L. donovani DD8 promastigote viability assay, 1 µM of amphotericin B was used as positive control and 0.4% DMSO as negative control.

[6] = system: L. donovani DD8 intracellular amastigotes; experiment: L. donovani DD8 intracellular amastigote high content imaging assay; type: cell-based, Leishmania donovani; conditions: Leishmania donovani; n = 2; 14 point dose response, top 20 µM; read-out: IC50 (mean ± SD), L. donovani DD8 intracellular amastigotes
Experimental: as §1
A high content, high-throughput imaging assay was used to identify compounds active against L. donovani DD8 intracellular amastigotes as described previosuly.

[7] = system: T. cruzi intracellular amastigotes; experiment: T. cruzi intracellular amastigote image-based assay; type: cell-based, Trypanosoma cruzi; conditions: for IC50: Trypanosoma cruzi, intracellular amastigotes, n = 2, top 18.3 µM, read-out: IC50 (mean ± SD), T. cruzi
Experimental: as §1
(§3) The efficacy of compounds against T. cruzi was undertaken using a phenotypic, high-throughput image-based assay as previously described.

[8] = system: THP-1 cells; experiment: THP-1 cytotoxicity (selectivity); type: cell-based, human; conditions: relative to L. donovani DD8 intracellular amastigotes
Experimental: as §1

[9] = system: L. donovani (MHOM/SD/62/1S-CL2D) axenic amastigotes; design: method as in PMID 15679330; conditions: strain MHOM/SD/62/1S-CL2D; cited from earlier work
[10] = system: T. b. brucei variant 221; conditions: cited from earlier work
[11] = system: L. mexicana intracellular amastigotes; design: method as in PMID 15679330; conditions: at 41.89 µM; cited from earlier work
[12] = system: L. donovani; design: method as in PMID 28498323; conditions: cited from earlier work
[13] = system: T. b. rhodesiense; design: method as in PMID 28498323; conditions: cited from earlier work
[14] = system: T. cruzi; design: method as in PMID 28498323; conditions: cited from earlier work
[15] = system: NF54 strain of Plasmodium falciparum; design: method as in PMID 28498323; conditions: read-out: IC50, P. falciparum NF54; cited from earlier work
[16] = system: T. b. brucei; design: method as in PMID 20696141; conditions: cited from earlier work
[17] = system: 3T3 host cells; experiment: 3T3 host cell cytotoxicity (selectivity); type: cell-based, mouse; conditions: relative to T. cruzi
Experimental: as §2, §3

[18] = system: T. cruzi; design: method as in PMID 25033456; conditions: cited from earlier work
[19] = system: 3T3 host cells; design: method as in PMID 25033456; conditions: relative to T. cruzi; cited from earlier work
[20] = system: P. falciparum (3D7); conditions: read-out: IC50, chloroquine-sensitive (3D7) P. falciparum; cited from earlier work
[21] = system: P. falciparum (Dd2); conditions: read-out: IC50, multi-drug resistant (Dd2) P. falciparum; cited from earlier work
[22] = system: malaria infection; design: method as in PMID 25490858; conditions: mouse, oral administration; cited from earlier work

COc1ccc2c(c[n+](C)c3c4cc5c(cc4ccc23)OCO5)c1OC [Compound 15, Chelerythrine chloride, reference compound]
IC50 [1]: 0.23 ± 0.04 µM
Selectivity index (SI) compared to HEK-293 cells ([2]; relative to T. b. brucei, listed as Chelerythrine chloride (15)): > 18.71
IC50 [3]: 1.3 µM

parmomycin
activity against L. donovani DD8 [4]: negligible activity

COc1c(C)c(O)c(C(=O)/C=C/c2ccccc2)c(O)c1C [Compound 13, (E)-1-(2,6-dihydroxy-4-methoxy-3,5-dimethylphenyl)-3-phenylprop-2-en-1-one]
inhibition at 16.7 µM [5]: 100%
IC50 [6]: 5.65 ± 0.26 µM
activity against T. b. brucei [1]: no significant activity
activity against T. cruzi [7]: no significant activity
Selectivity index (SI) compared to HEK-293 cells ([2]; relative to L. donovani DD8 intracellular amastigotes): ~ 12
Selectivity index (SI) compared to HEK-293 cells ([2]; relative to L. donovani DD8 intracellular amastigotes, listed as Chalcone analogue (13)): 11.87
Selectivity index (SI) compared to THP-1 cells [8]: 3.59
IC50 [9]: 16.8 ± 4.35 µM
IC50 [10]: 21.1 ± 3.68 µM
reduction in infection of L. mexicana intracellular amastigotes [11]: 96 ± 2%

CCCCCCC/C=C/C=C/C(=O)NCCc1ccc(O)cc1 [dodeca-2E,4E-dienoic acid 4-hydroxy-2-phenyl-ethylamide]
IC50 [12]: 4.19 ± 1.64 µM
IC50 [13]: 2.26 ± 0.18 µM
IC50 [14]: 1.88 µM
IC50 [15]: 3.18 ± 0.2 µM

CC[C@H]1CN2CCc3cc(OC)c(OC)cc3[C@@H]2C[C@@H]1C[C@H]1NCCc2cc(OC)c(OC)cc21 [Compound 10, Emetine dihydrochloride, reference compound]
inhibition at 16.7 µM [5]: 100%
IC50 [16]: 7.9 µM

OC(c1cc(C(F)(F)F)nc2c(C(F)(F)F)cccc12)C1CCCCN1 (stereo not drawn) [Compound 8, Mefloquine HCl, reference compound]
inhibition at 16.7 µM [5]: 100%
IC50 [1]: 0.62 ± 0.06 µM
IC50 [7]: 3.96 ± 0.58 µM
Selectivity index (SI) compared to HEK-293 cells ([2]; relative to T. b. brucei): 7.97
Selectivity index (SI) compared to HEK-293 cells ([2]; relative to T. cruzi): > 5.06
Selectivity index (SI) compared to 3T3 cells [17]: > 1.70
EC50 [18]: 6.1 µM
SI to 3T3 host cells [19]: 2

NCCc1c[nH]c2c1C(=O)C1=C(NC=CS1(=O)=O)C2=O [Compound 3, Thiaplakortone A]
IC50 [1]: 3.94 ± 0.78 µM
IC50 [7]: 4.26 ± 0.65 µM
Selectivity index (SI) compared to HEK-293 cells ([2]; relative to T. b. brucei): 0.70
Selectivity index (SI) compared to HEK-293 cells ([2]; relative to T. cruzi): 0.53
Selectivity index (SI) compared to 3T3 cells [17]: 1.06
IC50 [20]: 0.051 µM
IC50 [21]: 0.0066 µM
suppression of parasitemia [22]: did not suppress parasitemia
